Measured values from US20250145665A1, “MACROCYCLIC PEPTIDES USEFUL AS MODULATORS OF TNF ALPHA” (Bristol-Myers Squibb Company, priority 2023, published 2025).
pIC50: −log10 of the molar value. Positions of bridges follow the written chain, without caps; N, C: chain ends. Non-standard residues stand in square brackets, D forms with d. Residues, ends and D or L forms follow the SMILES beside them. Bip(4'-COOH) = N[C@@H](Cc1ccc(-c2ccc(C(=O)O)cc2)cc1)C(=O)O; Bip(4'-NHAc) = CC(=O)Nc1ccc(-c2ccc(C[C@H](N)C(=O)O)cc2)cc1; Ala(morpholin-4-yl) = N[C@@H](CN1CCOCC1)C(=O)O; Phe(3-CONH2) = NC(=O)c1cccc(C[C@H](N)C(=O)O)c1; Bip = N[C@@H](Cc1ccc(-c2ccccc2)cc1)C(=O)O; Abu(3S-NH2) = C[C@H](N)[C@H](N)C(=O)O; 2Pal = N[C@@H](Cc1ccccn1)C(=O)O; 3Pal = N[C@@H](Cc1cccnc1)C(=O)O; 2Thi = N[C@@H](Cc1cccs1)C(=O)O; Cha = N[C@@H](CC1CCCCC1)C(=O)O; Chg = N[C@H](C(=O)O)C1CCCCC1; Sar = CNCC(=O)O

Molecular target: TNFα (Homo sapiens, UniProt P01375)
Assay: TNF-Induced HEK-Blue Assay
Format: cell-based
Conditions: HEK-Blue-CD40L cells, NF-kB-driven secreted alkaline phosphatase reporter; TNFα 0.5 ng/ml; 18 h; read-out: TNF induced HEK-Blue assay IC50 value

Sequence of TNFα (P01375 77-233 limits assumed): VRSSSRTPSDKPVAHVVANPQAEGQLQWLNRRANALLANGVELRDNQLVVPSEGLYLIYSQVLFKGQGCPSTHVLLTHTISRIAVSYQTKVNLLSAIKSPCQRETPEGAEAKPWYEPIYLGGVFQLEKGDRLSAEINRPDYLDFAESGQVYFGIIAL

Row | Structure (SMILES) | pIC50
1 | CC(=O)Nc1ccc(-c2ccc(C[C@@H]3NC(=O)[C@H](Cc4ccc(-c5ccccc5)cc4)NC(=O)[C@H](CN4CCOCC4)NC(=O)CSC[C@@H](C(=O)NCC(N)=O)NC(=O)[C@H](CC(C)C)NC(=O)[C@H](Cc4ccccc4)NC(=O)[C@H](C(C)C)NC(=O)[C@@H]4CCCN4C(=O)[C@H](C(C)C)NC(=O)[C@@H](CCCNC(=N)N)NC(=O)[C@H](CC(=O)O)NC(=O)[C@H](Cc4ccccn4)NC(=O)CN(C)C3=O)cc2)cc1 [Example 227] ({CH2CO}-[Ala(morpholin-4-yl)][Bip][Bip(4'-NHAc)][Sar][2Pal]D[dR]VPVFLCG-NH2; thioether N-13) | 6.70 to 7.30
2 | CC(C)C[C@@H]1NC(=O)[C@H](CCCNC(=N)N)NC(=O)[C@H](C(C)C)NC(=O)[C@@H]2CCCN2C(=O)[C@H](C(C)C)NC(=O)[C@@H](CCCNC(=N)N)NC(=O)[C@H](CC(=O)O)NC(=O)[C@H](Cc2cnc[nH]2)NC(=O)CN(C)C(=O)[C@H](Cc2ccc(-c3ccccc3)cc2)NC(=O)[C@H](Cc2ccc(-c3ccccc3)cc2)NC(=O)[C@H](CN2CCOCC2)NC(=O)CSC[C@@H](C(=O)NCC(N)=O)NC1=O [Example 229] ({CH2CO}-[Ala(morpholin-4-yl)][Bip][Bip][Sar]HD[dR]VPVRLCG-NH2; thioether N-13) | 6.70 to 7.30
3 | CC(C)C[C@@H]1NC(=O)[C@H](CCCNC(=N)N)NC(=O)[C@H](C2CCCCC2)NC(=O)[C@@H]2CCCN2C(=O)[C@H](C(C)C)NC(=O)[C@@H](CCCNC(=N)N)NC(=O)[C@H](CC(=O)O)NC(=O)[C@H](Cc2cnc[nH]2)NC(=O)CN(C)C(=O)[C@H](Cc2ccc(-c3ccccc3)cc2)NC(=O)[C@H](Cc2ccc(-c3ccccc3)cc2)NC(=O)[C@H](CN2CCOCC2)NC(=O)CSC[C@@H](C(=O)NCC(N)=O)NC1=O [Example 230] ({CH2CO}-[Ala(morpholin-4-yl)][Bip][Bip][Sar]HD[dR]VP[Chg]RLCG-NH2; thioether N-13) | 6.70 to 7.30
4 | CC(C)C[C@@H]1NC(=O)[C@H](Cc2ccccc2)NC(=O)[C@H](C(C)C)NC(=O)[C@@H]2CCCN2C(=O)[C@H](C(C)C)NC(=O)[C@@H](CCCNC(=N)N)NC(=O)[C@H](CC(=O)O)NC(=O)[C@H](Cc2cnc[nH]2)NC(=O)CN(C)C(=O)[C@H](Cc2ccc(-c3ccccc3)cc2)NC(=O)[C@H](Cc2ccc(-c3ccccc3)cc2)NC(=O)[C@H](CN2CCOCC2)NC(=O)CSC[C@@H](C(=O)NCC(N)=O)NC1=O [Example 231] ({CH2CO}-[Ala(morpholin-4-yl)][Bip][Bip][Sar]HD[dR]VPVFLCG-NH2; thioether N-13) | 6.70 to 7.30
5 | CC(=O)Nc1ccc(-c2ccc(C[C@@H]3NC(=O)[C@H](Cc4ccc(-c5ccccc5)cc4)NC(=O)[C@H](CC4CCCCC4)NC(=O)CSC[C@@H](C(=O)NCC(N)=O)NC(=O)[C@H](CC(C)C)NC(=O)[C@H](Cc4cccs4)NC(=O)[C@H](C(C)C)NC(=O)[C@@H]4CCCN4C(=O)[C@H](C(C)C)NC(=O)[C@@H](CCCNC(=N)N)NC(=O)[C@H](CC(=O)O)NC(=O)[C@H](Cc4ccccn4)NC(=O)CN(C)C3=O)cc2)cc1 [Example 235] ({CH2CO}-[Cha][Bip][Bip(4'-NHAc)][Sar][2Pal]D[dR]VPV[2Thi]LCG-NH2; thioether N-13) | 5.70 to 6.70
6 | CC(=O)Nc1ccc(-c2ccc(C[C@@H]3NC(=O)[C@H](Cc4ccc(-c5ccc(C(=O)O)cc5)cc4)NC(=O)[C@H](CN4CCOCC4)NC(=O)CSC[C@@H](C(=O)NCC(N)=O)NC(=O)[C@H](CC(C)C)NC(=O)[C@H](Cc4ccc(O)cc4)NC(=O)[C@H](C(C)C)NC(=O)[C@@H]4CCCN4C(=O)[C@H](C(C)C)NC(=O)[C@@H](CCCNC(=N)N)NC(=O)[C@H](CC(=O)O)NC(=O)[C@@H]4CCCN4C(=O)CN(C)C3=O)cc2)cc1 [Example 236] ({CH2CO}-[Ala(morpholin-4-yl)][Bip(4'-COOH)][Bip(4'-NHAc)][Sar]PD[dR]VPVYLCG-NH2; thioether N-13) | 5.70 to 6.70
7 | CC(=O)Nc1ccc(-c2ccc(C[C@@H]3NC(=O)[C@H](Cc4ccc(-c5ccc(C(=O)O)cc5)cc4)NC(=O)[C@H](CN4CCOCC4)NC(=O)CSC[C@@H](C(=O)NCC(N)=O)NC(=O)[C@H](CC(C)C)NC(=O)[C@H](Cc4ccc(O)cc4)NC(=O)[C@H](C4CCCCC4)NC(=O)[C@@H]4CCCN4C(=O)[C@H](C(C)C)NC(=O)[C@@H](CCCNC(=N)N)NC(=O)[C@H](CC(=O)O)NC(=O)[C@@H]4CCCN4C(=O)CN(C)C3=O)cc2)cc1 [Example 237] ({CH2CO}-[Ala(morpholin-4-yl)][Bip(4'-COOH)][Bip(4'-NHAc)][Sar]PD[dR]VP[Chg]YLCG-NH2; thioether N-13) | 6.70 to 7.30
8 | CC(=O)Nc1ccc(-c2ccc(C[C@@H]3NC(=O)[C@H](Cc4ccc(-c5ccccc5)cc4)NC(=O)[C@H](CC4CCCCC4)NC(=O)CSC[C@@H](C(=O)NCC(N)=O)NC(=O)[C@H](CC(C)C)NC(=O)[C@H](Cc4ccc(O)cc4)NC(=O)[C@H](C(C)C)NC(=O)[C@@H]4CCCN4C(=O)[C@H]([C@H](C)N)NC(=O)[C@@H](CCCNC(=N)N)NC(=O)[C@H](CC(=O)O)NC(=O)[C@@H]4CCCN4C(=O)CN(C)C3=O)cc2)cc1 [Example 239] ({CH2CO}-[Cha][Bip][Bip(4'-NHAc)][Sar]PD[dR][Abu(3S-NH2)]PVYLCG-NH2; thioether N-13) | 6.70 to 7.30

The next lines start with the values.

Row | pIC50 | Structure (SMILES)
9 | > 7.30 | CC(=O)Nc1ccc(-c2ccc(C[C@@H]3NC(=O)[C@H](Cc4ccc(-c5ccccc5)cc4)NC(=O)[C@H](CN4CCOCC4)NC(=O)CSC[C@@H](C(=O)NCC(N)=O)NC(=O)[C@H](CC(C)C)NC(=O)[C@H](Cc4cccnc4)NC(=O)[C@H](C(C)C)NC(=O)[C@@H]4CCCN4C(=O)[C@H](C(C)C)NC(=O)[C@@H](CCCNC(=N)N)NC(=O)[C@H](CC(=O)O)NC(=O)[C@H](Cc4ccc(O)cc4)NC(=O)CN(C)C3=O)cc2)cc1 [Example 223] ({CH2CO}-[Ala(morpholin-4-yl)][Bip][Bip(4'-NHAc)][Sar]YD[dR]VPV[3Pal]LCG-NH2; thioether N-13)
10 | 6.70 to 7.30 | CC(=O)Nc1ccc(-c2ccc(C[C@@H]3NC(=O)[C@H](Cc4ccc(-c5ccc(C(=O)O)cc5)cc4)NC(=O)[C@H](CN4CCOCC4)NC(=O)CSC[C@@H](C(=O)NCC(N)=O)NC(=O)[C@H](CC(C)C)NC(=O)[C@H](Cc4ccccc4)NC(=O)[C@H](C(C)C)NC(=O)[C@@H]4CCCN4C(=O)[C@H](C(C)C)NC(=O)[C@@H](CCCNC(=N)N)NC(=O)[C@H](CC(=O)O)NC(=O)[C@H](Cc4ccccc4)NC(=O)CN(C)C3=O)cc2)cc1 [Example 225] ({CH2CO}-[Ala(morpholin-4-yl)][Bip(4'-COOH)][Bip(4'-NHAc)][Sar]FD[dR]VPVFLCG-NH2; thioether N-13)
11 | 6.70 to 7.30 | CC(=O)Nc1ccc(-c2ccc(C[C@@H]3NC(=O)[C@H](Cc4ccc(-c5ccc(C(=O)O)cc5)cc4)NC(=O)[C@H](CN4CCOCC4)NC(=O)CSC[C@@H](C(=O)NCC(N)=O)NC(=O)[C@H](CC(C)C)NC(=O)[C@H](CCCNC(=N)N)NC(=O)[C@H](C(C)C)NC(=O)[C@@H]4CCCN4C(=O)[C@H](CC(N)=O)NC(=O)[C@@H](CCCNC(=N)N)NC(=O)[C@H](CC(=O)O)NC(=O)[C@H](Cc4ccccn4)NC(=O)CN(C)C3=O)cc2)cc1 [Example 226] ({CH2CO}-[Ala(morpholin-4-yl)][Bip(4'-COOH)][Bip(4'-NHAc)][Sar][2Pal]D[dR]NPVRLCG-NH2; thioether N-13)
12 | > 7.30 | CC(=O)Nc1ccc(-c2ccc(C[C@@H]3NC(=O)[C@H](Cc4ccc(-c5ccccc5)cc4)NC(=O)[C@H](CN4CCOCC4)NC(=O)CSC[C@@H](C(=O)NCC(N)=O)NC(=O)[C@H](CC(C)C)NC(=O)[C@H](Cc4ccccn4)NC(=O)[C@H](C(C)C)NC(=O)[C@@H]4CCCN4C(=O)[C@H](C(C)C)NC(=O)[C@@H](CCCNC(=N)N)NC(=O)[C@H](CC(=O)O)NC(=O)[C@H](Cc4ccccc4)NC(=O)CN(C)C3=O)cc2)cc1 [Example 228] ({CH2CO}-[Ala(morpholin-4-yl)][Bip][Bip(4'-NHAc)][Sar]FD[dR]VPV[2Pal]LCG-NH2; thioether N-13)
13 | > 7.30 | CC(=O)Nc1ccc(-c2ccc(C[C@@H]3NC(=O)[C@H](Cc4ccc(-c5ccccc5)cc4)NC(=O)[C@H](CN4CCOCC4)NC(=O)CSC[C@@H](C(=O)NCC(N)=O)NC(=O)[C@H](CC(C)C)NC(=O)[C@H](CCCNC(=N)N)NC(=O)[C@H](C4CCCCC4)NC(=O)[C@@H]4CCCN4C(=O)[C@H](C(C)C)NC(=O)[C@@H](CCCNC(=N)N)NC(=O)[C@H](CC(=O)O)NC(=O)[C@H](Cc4cnc[nH]4)NC(=O)CN(C)C3=O)cc2)cc1 [Example 232] ({CH2CO}-[Ala(morpholin-4-yl)][Bip][Bip(4'-NHAc)][Sar]HD[dR]VP[Chg]RLCG-NH2; thioether N-13)
14 | > 7.30 | CC(=O)Nc1ccc(-c2ccc(C[C@@H]3NC(=O)[C@H](Cc4ccc(-c5ccccc5)cc4)NC(=O)[C@H](CC4CCCCC4)NC(=O)CSC[C@@H](C(=O)NCC(N)=O)NC(=O)[C@H](CC(C)C)NC(=O)[C@H](Cc4cccc(C(N)=O)c4)NC(=O)[C@H](C(C)C)NC(=O)[C@@H]4CCCN4C(=O)[C@H](C(C)C)NC(=O)[C@@H](CCCNC(=N)N)NC(=O)[C@H](CC(=O)O)NC(=O)[C@H](Cc4ccccn4)NC(=O)CN(C)C3=O)cc2)cc1 [Example 233] ({CH2CO}-[Cha][Bip][Bip(4'-NHAc)][Sar][2Pal]D[dR]VPV[Phe(3-CONH2)]LCG-NH2; thioether N-13)
15 | > 7.30 | CC(=O)Nc1ccc(-c2ccc(C[C@@H]3NC(=O)[C@H](Cc4ccc(-c5ccc(C(=O)O)cc5)cc4)NC(=O)[C@H](CC4CCCCC4)NC(=O)CSC[C@@H](C(=O)NCC(N)=O)NC(=O)[C@H](CC(C)C)NC(=O)[C@H](Cc4cnc[nH]4)NC(=O)[C@H](C(C)C)NC(=O)[C@@H]4CCCN4C(=O)[C@H](C(C)C)NC(=O)[C@@H](CCCNC(=N)N)NC(=O)[C@H](CC(=O)O)NC(=O)[C@H](Cc4cnc[nH]4)NC(=O)CN(C)C3=O)cc2)cc1 [Example 234] ({CH2CO}-[Cha][Bip(4'-COOH)][Bip(4'-NHAc)][Sar]HD[dR]VPVHLCG-NH2; thioether N-13)
16 | > 7.30 | CC[C@H](C)[C@@H]1NC(=O)[C@@H](CCCNC(=N)N)NC(=O)[C@H](CC(=O)O)NC(=O)[C@H](Cc2cnc[nH]2)NC(=O)CN(C)C(=O)[C@H](Cc2ccc(-c3ccc(NC(C)=O)cc3)cc2)NC(=O)[C@H](Cc2ccc(-c3ccccc3)cc2)NC(=O)[C@H](CN2CCOCC2)NC(=O)CSC[C@@H](C(=O)NCC(N)=O)NC(=O)[C@H](CC(C)C)NC(=O)[C@H](Cc2cnc[nH]2)NC(=O)[C@H](C(C)C)NC(=O)[C@@H]2CCCN2C1=O [Example 238] ({CH2CO}-[Ala(morpholin-4-yl)][Bip][Bip(4'-NHAc)][Sar]HD[dR]IPVHLCG-NH2; thioether N-13)
